One may read the IC50 as the point on the concentration scale where inhibition reaches its midpoint. A lower IC50 goes with inhibition by little substance.

Among the data in US11420958B2, “Aryl and heteroaryl substituted indole compounds” (BRISTOL-MYERS SQUIBB COMPANY, priority 2017, dated 2022) are IC50 values, retold here.

Common to all, as to format: cell-based
Test [1] has as its target human TLR9 (Homo sapiens (Human), UniProt Q9NR96). Description: TLR9 inhibition reporter assay (HEK-Blue, SEAP). Particulars: HEK-Blue cells overexpressing human TLR9, ODN2006 5 nM stimulation. The procedure:
(§1) TLR7/8/9 Inhibition Reporter Assays
(§2) HEK-Blue™-cells (Invivogen) overexpressing human TLR7, TLR8 or TLR9 receptors were used for screening inhibitors of these receptors using an inducible SEAP (secreted embryonic alkaline phosphatase) reporter gene under the control of the IFN-β minimal promoter fused to five NF-κc Band AP-1-binding sites. Briefly, cells are seeded into Greiner 384 well plates (15000 cells per well for TLR7, 20,000 for TLR8 and 25,000 for TLR9) and then treated with test compounds in DMSO to yield a final dose response concentration range of 0.05 nM-50 μM. After a 30 minute compound pre-treatment at room temperature, the cells are then stimulated with a TLR7 ligand (gardiquimod at a final concentration of 7.5 μM), TLR8 ligand (R848 at a final concentration of 15.9 μM) or TLR9 ligand (ODN2006 at final concentration of 5 nM) to activate NF-κB and AP-1 which induce the production of SEAP. After a 22 hour incubation at 37° C., 5% CO2, SEAP levels are determined with the addition of HEK-Bue™ Detection reagent (Invivogen), a cell culture medium that allows for detection of SEAP, according to manufacturer's specifications. The percent inhibition is determined as the % reduction in the HEK-Blue signal present in wells treated with agonist plus DMSO alone compared to wells treated with a known inhibitor.

Test [2] deals with human TLR7 (Homo sapiens (Human), UniProt Q9NYK1). Description: TLR7 inhibition reporter assay (HEK-Blue, SEAP). Particulars: HEK-Blue cells overexpressing human TLR7, gardiquimod 7.5 μM stimulation. The procedure: as §1, §2
In general terms: Reporter assays use an easily measured gene product as a stand-in for the process of interest.

Test [3] concerns the target human TLR8 (Homo sapiens (Human), UniProt Q9NR97). Nature of the test: TLR8 inhibition reporter assay (HEK-Blue, SEAP). The note with it: HEK-Blue cells overexpressing human TLR8, R848 15.9 μM stimulation. The procedure:
as §1, §2

Each structure is given as a SMILES string.

Chain of human TLR8 (Q9NR97 27-1041): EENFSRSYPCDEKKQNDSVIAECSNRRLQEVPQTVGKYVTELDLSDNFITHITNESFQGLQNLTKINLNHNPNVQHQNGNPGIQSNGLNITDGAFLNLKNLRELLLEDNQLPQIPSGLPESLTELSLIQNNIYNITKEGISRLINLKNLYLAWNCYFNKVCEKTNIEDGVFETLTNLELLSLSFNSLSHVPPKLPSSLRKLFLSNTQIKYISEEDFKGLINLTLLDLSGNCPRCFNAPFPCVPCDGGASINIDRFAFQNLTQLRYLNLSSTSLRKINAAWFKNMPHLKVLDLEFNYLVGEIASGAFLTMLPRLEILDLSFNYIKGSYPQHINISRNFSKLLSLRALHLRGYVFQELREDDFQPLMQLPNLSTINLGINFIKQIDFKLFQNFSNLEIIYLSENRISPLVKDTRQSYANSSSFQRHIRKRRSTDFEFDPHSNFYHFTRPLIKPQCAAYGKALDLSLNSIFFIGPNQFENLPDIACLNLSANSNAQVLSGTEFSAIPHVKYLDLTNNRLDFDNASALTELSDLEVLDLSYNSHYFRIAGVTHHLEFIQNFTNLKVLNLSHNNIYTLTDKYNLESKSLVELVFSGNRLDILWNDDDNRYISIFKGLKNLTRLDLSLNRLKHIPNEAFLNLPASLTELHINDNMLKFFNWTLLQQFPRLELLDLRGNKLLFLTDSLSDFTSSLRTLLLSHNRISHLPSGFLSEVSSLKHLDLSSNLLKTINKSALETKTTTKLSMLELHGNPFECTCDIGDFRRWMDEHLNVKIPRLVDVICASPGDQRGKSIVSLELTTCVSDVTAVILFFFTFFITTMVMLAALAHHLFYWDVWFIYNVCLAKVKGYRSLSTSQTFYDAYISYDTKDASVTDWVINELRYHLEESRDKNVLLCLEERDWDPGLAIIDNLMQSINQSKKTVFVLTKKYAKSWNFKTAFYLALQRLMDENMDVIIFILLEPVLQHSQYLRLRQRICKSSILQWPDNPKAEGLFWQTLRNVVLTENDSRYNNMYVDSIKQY
Chain of human TLR7 (Q9NYK1 27-1049): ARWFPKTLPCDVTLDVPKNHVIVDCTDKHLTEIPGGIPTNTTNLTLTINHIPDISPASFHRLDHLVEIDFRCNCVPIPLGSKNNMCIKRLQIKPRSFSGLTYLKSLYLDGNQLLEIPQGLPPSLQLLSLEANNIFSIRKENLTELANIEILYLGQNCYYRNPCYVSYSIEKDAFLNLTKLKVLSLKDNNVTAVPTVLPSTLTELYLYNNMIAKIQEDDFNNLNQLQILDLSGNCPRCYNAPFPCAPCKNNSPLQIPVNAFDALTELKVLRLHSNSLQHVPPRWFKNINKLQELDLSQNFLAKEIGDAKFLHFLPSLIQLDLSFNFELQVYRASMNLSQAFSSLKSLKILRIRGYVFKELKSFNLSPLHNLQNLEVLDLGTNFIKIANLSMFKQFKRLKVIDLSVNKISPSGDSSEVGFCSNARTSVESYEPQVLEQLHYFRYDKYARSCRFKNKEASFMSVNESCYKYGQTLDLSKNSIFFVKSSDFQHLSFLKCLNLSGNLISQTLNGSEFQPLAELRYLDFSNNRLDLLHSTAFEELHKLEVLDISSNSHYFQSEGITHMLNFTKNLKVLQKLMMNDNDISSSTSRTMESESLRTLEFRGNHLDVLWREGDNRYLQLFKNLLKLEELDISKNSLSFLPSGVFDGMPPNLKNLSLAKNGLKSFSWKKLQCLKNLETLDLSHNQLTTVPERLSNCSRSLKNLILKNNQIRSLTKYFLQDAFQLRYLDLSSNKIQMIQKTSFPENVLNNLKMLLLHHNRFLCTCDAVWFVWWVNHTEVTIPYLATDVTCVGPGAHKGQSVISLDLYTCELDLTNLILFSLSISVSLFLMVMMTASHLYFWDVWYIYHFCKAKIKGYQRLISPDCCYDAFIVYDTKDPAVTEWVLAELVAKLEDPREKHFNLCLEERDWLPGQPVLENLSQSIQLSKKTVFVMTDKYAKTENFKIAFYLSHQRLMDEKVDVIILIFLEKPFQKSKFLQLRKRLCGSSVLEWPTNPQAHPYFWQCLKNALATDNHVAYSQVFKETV
Chain of human TLR9 (Q9NR96 26-1032): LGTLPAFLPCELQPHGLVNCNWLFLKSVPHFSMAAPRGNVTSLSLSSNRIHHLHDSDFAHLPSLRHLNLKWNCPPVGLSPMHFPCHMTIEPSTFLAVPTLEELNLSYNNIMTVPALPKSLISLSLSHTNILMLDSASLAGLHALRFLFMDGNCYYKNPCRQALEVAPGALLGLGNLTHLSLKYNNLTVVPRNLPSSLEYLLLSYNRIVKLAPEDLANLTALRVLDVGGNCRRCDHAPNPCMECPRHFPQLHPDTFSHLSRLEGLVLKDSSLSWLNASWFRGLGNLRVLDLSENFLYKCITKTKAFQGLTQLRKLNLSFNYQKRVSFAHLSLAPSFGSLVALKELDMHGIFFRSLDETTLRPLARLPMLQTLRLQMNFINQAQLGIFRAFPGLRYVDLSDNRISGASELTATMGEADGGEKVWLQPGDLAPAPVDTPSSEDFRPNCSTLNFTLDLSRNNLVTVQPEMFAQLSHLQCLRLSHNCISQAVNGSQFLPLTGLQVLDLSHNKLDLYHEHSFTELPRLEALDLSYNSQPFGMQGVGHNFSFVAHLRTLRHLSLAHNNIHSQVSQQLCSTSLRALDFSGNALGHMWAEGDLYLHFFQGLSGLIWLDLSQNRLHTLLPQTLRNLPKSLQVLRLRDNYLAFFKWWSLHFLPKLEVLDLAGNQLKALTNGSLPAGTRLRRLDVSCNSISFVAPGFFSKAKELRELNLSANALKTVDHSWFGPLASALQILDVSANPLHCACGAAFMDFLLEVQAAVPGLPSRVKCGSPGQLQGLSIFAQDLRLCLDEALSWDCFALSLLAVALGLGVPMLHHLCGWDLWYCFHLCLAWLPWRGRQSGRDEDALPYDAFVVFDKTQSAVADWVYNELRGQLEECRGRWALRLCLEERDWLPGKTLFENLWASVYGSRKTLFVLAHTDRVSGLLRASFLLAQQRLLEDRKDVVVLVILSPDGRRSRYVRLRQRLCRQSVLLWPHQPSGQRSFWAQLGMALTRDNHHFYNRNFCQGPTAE

As for `COc1ccc(-c2[nH]c3ccc(-c4cccc(C(=O)N5CCC(O)CC5)c4)cc3c2CC(F)(F)F)cc1OC` [Example 31, (3-(2-(3,4-dimethoxyphenyl)-3-(2,2,2-trifluoroethyl)-1H-indol-5-yl)phenyl)(4-hydroxypiperidin-1-yl)methanone], the values for the IC50 in test [1], in test [2] and in test [3] were 25800 nM, 895 nM and 307 nM, respectively.
Consider `COc1ccc(-c2[nH]c3ccc(-c4cccc(C(=O)N5CCCC5C)c4)cc3c2CC(F)(F)F)cc1OC` (stereo not drawn) [Example 32, (3-(2-(3,4-dimethoxyphenyl)-3-(2,2,2-trifluoroethyl)-1H-indol-5-yl)phenyl)(2-methylpyrrolidin-1-yl)methanone], for which the IC50 in test [1] is more than 50000 nM; in test [2] it was 2620 nM; in test [3], 1110 nM.
For `COc1ccc(-c2[nH]c3ccc(-c4cccc(C(=O)N5CC[C@@H](O)C5)c4)cc3c2CC(F)(F)F)cc1OC` [Example 34, (R)-(3-(2-(3,4-dimethoxyphenyl)-3-(2,2,2-trifluoroethyl)-1H-indol-5-yl)phenyl)(3-hydroxypyrrolidin-1-yl)methanone] the same measures were 14700 nM, 776 nM and 199 nM.
For the molecule `COc1ccc(-c2[nH]c3ccc(-c4cccc(C(=O)N(C)CCc5ccccn5)c4)cc3c2CC(F)(F)F)cc1OC` [Example 35, 3-(2-(3,4-dimethoxyphenyl)-3-(2,2,2-trifluoroethyl)-1H-indol-5-yl)-N-methyl-N-(2-(pyridin-2-yl)ethyl)benzamide], the IC50 in test [1] was more than 50000 nM; in test [2], 974 nM; in test [3] it was 71 nM.
As for `COc1ccc(-c2[nH]c3ccc(-c4cccc(C(=O)N5CCN(c6ccncc6)CC5)c4)cc3c2CC(F)(F)F)cc1OC` [Example 36, (3-(2-(3,4-dimethoxyphenyl)-3-(2,2,2-trifluoroethyl)-1H-indol-5-yl)phenyl)(4-(pyridin-4-yl)piperazin-1-yl)methanone], the values for the IC50 in test [1], in test [2] and in test [3] were 1800 nM, 287 nM and 102 nM, respectively.
As for `COc1ccc(-c2[nH]c3ccc(-c4cccc(C(=O)N5CCN(C6CCN(C)CC6)CC5)c4)cc3c2CC(F)(F)F)cc1OC` [Example 37, (3-(2-(3,4-dimethoxyphenyl)-3-(2,2,2-trifluoroethyl)-1H-indol-5-yl)phenyl)(4-(1-methylpiperidin-4-yl)piperazin-1-yl)methanone], the IC50 in test [1] stood at 2320 nM; in test [2], 405 nM; in test [3], 139 nM.
With `CCc1c(-c2ccc(OC)c(OC)c2)[nH]c2ccc(-c3nnc(C(=O)N(C)C)o3)cc12` [Example 38, 5-(2-(3,4-dimethoxyphenyl)-3-ethyl-1H-indol-5-yl)-N,N-dimethyl-1,3,4-oxadiazole-2-carboxamide], the IC50 in test [1] is more than 50000 nM; in test [2], 1030 nM; in test [3], 151 nM.
For the molecule `CCc1c(-c2ccc(OC)c(OC)c2)[nH]c2ccc(-c3nnc(C(=O)NC4CCN(C(C)C)CC4)o3)cc12` [Example 39, 5-(2-(3,4-dimethoxyphenyl)-3-ethyl-1H-indol-5-yl)-N-(1-isopropylpiperidin-4-yl)-1,3,4-oxadiazole-2-carboxamide], the IC50 in test [1] turned out to be 433 nM; in test [2], 93 nM; in test [3] it was 7.9 nM.
Turning to `CCc1c(-c2ccc(OC)c(OC)c2)[nH]c2ccc(-c3nnc(C(=O)N4CC5CNCC5C4)o3)cc12` (stereo not drawn) [Example 40, (5-(2-(3,4-dimethoxyphenyl)-3-ethyl-1H-indol-5-yl)-1,3,4-oxadiazol-2-yl)(hexahydropyrrolo[3,4-c]pyrrol-2(1H)-yl)methanone], the IC50 in test [1] was found to be 325 nM; in test [2], 154 nM; in test [3], 18 nM.
In the case of `CCc1c(-c2ccc(OC)c(OC)c2)[nH]c2ccc(-c3nnc(C(N)=O)o3)cc12` [Example 41, 5-(2-(3,4-dimethoxyphenyl)-3-ethyl-1H-indol-5-yl)-1,3,4-oxadiazole-2-carboxamide], the 50% inhibitory concentration (IC50) was more than 50000 nM in test [1], 749 nM in test [2] and 173 nM in test [3].
Turning to `COc1ccc(-c2[nH]c3ccc(-c4cccc(C(=O)N5CC6CNCC6C5)c4)cc3c2CC(F)(F)F)cc1OC` (stereo not drawn) [Example 42, (3-(2-(3,4-dimethoxyphenyl)-3-(2,2,2-trifluoroethyl)-1H-indol-5-yl)phenyl)(hexahydropyrrolo[3,4-c]pyrrol-2(1H)-yl)methanone], the IC50 in test [1] turned out to be 710 nM; in test [2] it was 448 nM; in test [3], 27 nM.
In the case of `COc1ccc(-c2[nH]c3ccc(-c4nnc(CCN(C)C)o4)cc3c2C(C)C)cc1OC` [Example 43, 2-(5-(2-(3,4-dimethoxyphenyl)-3-isopropyl-1H-indol-5-yl)-1,3,4-oxadiazol-2-yl)-N,N-dimethylethan-1-amine], the figures for the IC50 in test [1], in test [2] and in test [3] were 1460 nM, 40 nM and 2 nM, respectively.
For `COc1ccc(-c2[nH]c3ccc(-c4nnc(CN(C)C)o4)cc3c2C(C)C)cc1OC` [Example 44, 1-(5-(2-(3,4-dimethoxyphenyl)-3-isopropyl-1H-indol-5-yl)-1,3,4-oxadiazol-2-yl)-N,N-dimethylmethanamine], the IC50 in test [1] stood at 12100 nM; in test [2], 266 nM; in test [3], 14 nM.
With `COc1ccc(-c2[nH]c3ccc(-c4nnc(Cc5c[nH]cn5)o4)cc3c2C(C)C)cc1OC` [Example 45, 2-((1H-imidazol-4-yl)methyl)-5-(2-(3,4-dimethoxyphenyl)-3-isopropyl-1H-indol-5-yl)-1,3,4-oxadiazole], the IC50 in test [1] is more than 50000 nM; in test [2], 154 nM; in test [3], 16 nM.
Regarding `COc1ccc(-c2[nH]c3ccc(-c4nnc(C5CCCN(C)C5)o4)cc3c2C(C)C)cc1OC` (stereo not drawn) [Example 46, 2-(2-(3,4-dimethoxyphenyl)-3-isopropyl-1H-indol-5-yl)-5-(1-methylpiperidin-3-yl)-1,3,4-oxadiazole], the IC50 in test [1] was 1080 nM; in test [2], 39 nM; in test [3] it was 6.2 nM.
Take `COc1ccc(-c2[nH]c3ccc(-c4nnc(CCn5ccnc5)o4)cc3c2C(C)C)cc1OC` [Example 47, 2-(2-(1H-imidazol-1-yl)ethyl)-5-(2-(3,4-dimethoxyphenyl)-3-isopropyl-1H-indol-5-yl)-1,3,4-oxadiazole]: the results for the IC50 in test [1], in test [2] and in test [3] were 19100 nM, 194 nM and 82 nM, respectively.
With `COc1ccc(-c2[nH]c3ccc(-c4nnc(C5CCNC5)o4)cc3c2C(C)C)cc1OC` (stereo not drawn) [Example 48, 2-(2-(3,4-dimethoxyphenyl)-3-isopropyl-1H-indol-5-yl)-5-(pyrrolidin-3-yl)-1,3,4-oxadiazole], the IC50 in test [1] was found to be 2330 nM; in test [2] it was 34 nM; in test [3], 11 nM.
As to `CN[C@@H](C)c1nnc(-c2ccc3[nH]c(-c4ccc(OC)c(OC)c4)c(C(C)C)c3c2)o1` [Example 49, (S)-1-(5-(2-(3,4-dimethoxyphenyl)-3-isopropyl-1H-indol-5-yl)-1,3,4-oxadiazol-2-yl)-N-methylethan-1-amine], the IC50 amounted to 11500 nM in test [1], 169 nM in test [2] and 11 nM in test [3].
Turning to `COc1ccc(-c2[nH]c3ccc(-c4nnc(C[C@@H]5CCCCN5)o4)cc3c2C(C)C)cc1OC` [Example 50, (S)-2-(2-(3,4-dimethoxyphenyl)-3-isopropyl-1H-indol-5-yl)-5-(piperidin-2-ylmethyl)-1,3,4-oxadiazole], the IC50 amounted to 1080 nM in test [1], 44 nM in test [2] and 5.9 nM in test [3].
